Source: US10544149B2, “Bicyclic alkyne derivatives and uses thereof” (Agency for Science, Technology and Research, priority 2013, dated 2020)

Tests used:
[1] = tested on: eIF4e phosphorylation in Hela cell line; test: eIF4e phosphorylation inhibition in Hela cell line; assay type: cell-based; conditions: Homo sapiens, cellular
[2] = biological target: MNK2 (Homo sapiens, UniProt Q9HBH9); test: MNK2 enzymatic assay; assay type: biochemical
[3] = biological target: MNK1 (Homo sapiens, UniProt Q9BUB5); test: MNK1 enzymatic assay; assay type: biochemical
Chain of MNK1 (Q9BUB5 whole entry): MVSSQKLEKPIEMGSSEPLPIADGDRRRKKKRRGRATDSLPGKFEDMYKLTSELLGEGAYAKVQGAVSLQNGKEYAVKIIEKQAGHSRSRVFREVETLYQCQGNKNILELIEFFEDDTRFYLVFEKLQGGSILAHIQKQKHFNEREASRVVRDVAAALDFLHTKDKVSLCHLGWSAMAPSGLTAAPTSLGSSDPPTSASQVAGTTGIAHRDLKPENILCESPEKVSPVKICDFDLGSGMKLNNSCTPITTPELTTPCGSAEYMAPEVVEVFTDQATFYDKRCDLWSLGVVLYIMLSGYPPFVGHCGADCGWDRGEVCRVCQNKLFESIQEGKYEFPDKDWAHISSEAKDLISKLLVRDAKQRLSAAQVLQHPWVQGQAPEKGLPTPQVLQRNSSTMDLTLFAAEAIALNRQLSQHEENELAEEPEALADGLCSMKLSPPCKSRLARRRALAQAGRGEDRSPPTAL

[4] = tested on: TNF production by macrophage; conditions: TLR agonist stimulation, dose dependant; cited from earlier work

Chain of MNK2 (Q9HBH9 whole entry): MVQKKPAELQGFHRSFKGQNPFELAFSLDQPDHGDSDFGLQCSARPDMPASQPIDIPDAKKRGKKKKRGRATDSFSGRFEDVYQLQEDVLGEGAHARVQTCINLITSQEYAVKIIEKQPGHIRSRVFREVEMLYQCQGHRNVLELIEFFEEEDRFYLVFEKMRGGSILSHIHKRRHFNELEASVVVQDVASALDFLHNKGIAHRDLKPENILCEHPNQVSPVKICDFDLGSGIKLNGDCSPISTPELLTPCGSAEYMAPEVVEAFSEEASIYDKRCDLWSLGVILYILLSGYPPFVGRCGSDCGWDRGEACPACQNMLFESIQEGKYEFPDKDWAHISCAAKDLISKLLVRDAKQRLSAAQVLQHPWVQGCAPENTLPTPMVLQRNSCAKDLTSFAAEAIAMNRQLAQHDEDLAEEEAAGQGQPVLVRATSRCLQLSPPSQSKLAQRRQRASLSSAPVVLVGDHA

IC50 [1] [µM] | IC50 [2] [µM] | melting point [°C] | IC50 [3] [µM] | SMILES | production / release of TNF [4]
< 5 | < 0.5 | 206 to 209 | < 0.5 | O=C(c1ccc(-c2ccn3ncc(C#Cc4ccncc4)c3n2)cc1)N1CCOCC1 [Example 114, morpholino(4-(3-(pyridin-4-ylethynyl)pyrazolo[1,5-a]pyrimidin-5-yl)phenyl)methanone] | –
< 5 | < 0.5 | 233 to 236 | < 0.5 | Cc1cnccc1C#Cc1cnn2ccc(-c3ccc(C(=O)N4CCOCC4)cc3)nc12 [Example 116, (4-(3-((3-methylpyridin-4-yl)ethynyl)pyrazolo[1,5-a]pyrimidin-5-yl)phenyl)(morpholino)methanone] | –
< 5 | < 0.5 | 120 to 136 | < 0.5 | O=C(c1ccc(-c2ccn3ncc(C#Cc4ccncc4)c3n2)cc1)N1CCNCC1 [Example 115, piperazin-1-yl(4-(3-(pyridin-4-ylethynyl)pyrazolo[1,5-a]pyrimidin-5-yl)phenyl)methanone] | –

The next lines start with the compound.

SMILES | IC50 [1] [µM] | IC50 [2] [µM] | melting point [°C] | IC50 [3] [µM] | production / release of TNF [4]
O=C(c1ccc(-c2ccc3ncc(C#Cc4ccncc4)n3c2)cc1)N1CCNCC1 [Example 109, piperazin-1-yl(4-(3-(pyridin-4-ylethynyl)imidazo[1,2-a]pyridin-6-yl)phenyl)methanone] | < 5 | < 0.5 | 125 to 130 | < 0.5 | –
Nc1ncnc2n[nH]c(Nc3ccc(F)cc3)c12 [CGP57380] | – | – | – | – | inhibits
O=C(c1ccc(-c2ccc3ncc(C#Cc4ccnc5[nH]ccc45)n3c2)cc1)N1CCNCC1 [Example 110, (4-(3-((1H-pyrrolo[2,3-b]pyridin-4-yl)ethynyl)imidazo[1,2-a]pyridin-6-yl)phenyl)(piperazin-1-yl)methanone] | < 5 | < 0.5 | 242 to 245 | < 0.5 | –
